Measurements reported in patent publication US20100197663A1, “METHOD AND COMPOSITIONS FOR TREATMENT OF PAINFUL DISORDERS” (RODLEN LABORATORIES, INC., priority 2004, published 2010).

Experiments:
[1] = test system: widespread pain in the neck, shoulders, arms and legs; assay: Case report: patient with widespread pain, headaches, non-restorative sleep and fatigue, oral treatment at H.S.; assay type: in vivo, human; conditions: person; before combination treatment
[2] = test system: widespread pain in the neck, back and arms associated with fibromyalgia; assay: Case report: patient with fibromyalgia pain, oral treatment at H.S.; assay type: in vivo, human; conditions: person; analgesic taken by itself, before combination treatment

Compound	response of pain to analgesic alone [1]	response of pain to analgesic by itself [2]
CC(C)Cc1ccc(C(C)C(=O)O)cc1 (stereo not drawn) [ibuprofen]	unresponsive	
CC(=O)Oc1ccccc1C(=O)O [aspirin]		unresponsive
CC(=O)Nc1ccc(O)cc1 [acetaminophen]		unresponsive
